From patent publication US20090209474A1, “NOVEL USES FOR DRUGS TARGETING GLUTAMINE SYNTHETASE” (NEWTHERA, priority 2005, published 2009)
Entries after “also recorded” stand apart in the source; their conditions may differ. Like-named read-outs stand apart in the source and are kept apart here.

How the values were obtained:
GS [1] = target: T1, GS (Mus musculus, UniProt P15105); conditions: 24 h after single i.p.
GS [2] = conditions: literature (Meister 1985; Eisenberg et al., 2000); cited from earlier work
pathogenic mycobacteria = conditions: cited from earlier work
rats [3] = conditions: rat, in vivo; cited from earlier work
Wistar rats [4] = test: Open field task in corticosterone-administered rats; assay type: in vivo; conditions: day 15, corticosterone 35 mg/kg s.c.; versus PCB and Control
[5] = Adrenal weight in corticosterone-administered rats; assay type: in vivo, Wistar rats; conditions: 21 days, versus PCB
rats [6] = conditions: rat, in vivo; cited from earlier work; remark: listed apart in the source
[7] = test system: glucocorticoid receptor (GR); test: Brain glucocorticoid receptor expression by ELISA in corticosterone-administered rats; assay type: in vivo, Wistar rats; conditions: GF 0.1 and 3 mg/kg, MS 0.5, 15 and 45 mg/kg, tianeptine 0.5 mg/kg; versus PCB
rabbits = conditions: rabbit, in vivo; cited from earlier work
mice [8] = conditions: cited from earlier work
dogs = conditions: based on decreased body weight at higher doses; cited from earlier work
rats [9] = conditions: cited from earlier work
GS [10] = conditions: rat, in vivo
mice [11] = conditions: cited from earlier work; remark: listed apart in the source
[12] = Adrenal weight of rats administered methylprednisolone; assay type: in vivo, Wistar rats
Description: Wistar rats were administered during 21 days once a day with methyprednisolone (5 mg/kg i.p.) plus GF (0.001, 0.01, 0.1 mg/kg), NF (1 and 10 mg/kg) or vehicle (PCB; i.p). Twenty-four hours after the last administrations, they were euthanatized. A complete necropsy was performed and main organs weighted.

Wistar rats [13] = test: PTZ-induced seizures; assay type: in vivo
GS [14] = target: T2, GS (Rattus norvegicus, UniProt P09606); conditions: for lung GS activity: versus PCB
GS [15] = target: T2, GS; assay type: in vivo, Wistar rats; set-up: Wistar rat brain homogenates were incubated with naftazone; from tissue; host or cells: Wistar rat brain homogenate or membranes; in A19 also liver and lungs
GS [16] = target: T2, GS; conditions: GF 1 mg/kg, tianeptine 10 mg/kg, methyprednisolone 5 mg/kg i.p.
purified sheep brain GS = test: Purified sheep brain GS activity (Meister's method, gamma-glutamylhydroxamate formation); assay type: biochemical
[17] = in vivo, cited from earlier work
GS [18] = target: T1, GS; assay type: in vivo, BALB/c mice; set-up: from tissue; host or cells: mouse brain (whole brain, cortex, hippocampus, thalamus/hypothalamus); conditions: 24 h after single i.p.; NF 10 and 100 mg/kg, GF 1 mg/kg
Description: Cortex, hippocampi and thalamus/hypothalamus were carefully isolated immediately after euthanasia. Membranes were prepared and the activity of GS determined in these different structures (as mentioned above for the whole brain).

Wistar rats [19] = test: Forced swimming test in corticosterone-administered rats; assay type: in vivo
CA3 pyramidal neurons = test: Surface of CA3 pyramidal neurons (Golgi) in corticosterone-administered rats; assay type: in vivo, Wistar rats; conditions: 21 days
brain GS = brain GS (Mus musculus, UniProt P15105); conditions: i.p. 7 days
[20] = 21 days, versus PCB and Control
[21] = GF 3 mg/kg, tianeptine 15 mg/kg

T2 sequence (P09606 2-373 limits assumed): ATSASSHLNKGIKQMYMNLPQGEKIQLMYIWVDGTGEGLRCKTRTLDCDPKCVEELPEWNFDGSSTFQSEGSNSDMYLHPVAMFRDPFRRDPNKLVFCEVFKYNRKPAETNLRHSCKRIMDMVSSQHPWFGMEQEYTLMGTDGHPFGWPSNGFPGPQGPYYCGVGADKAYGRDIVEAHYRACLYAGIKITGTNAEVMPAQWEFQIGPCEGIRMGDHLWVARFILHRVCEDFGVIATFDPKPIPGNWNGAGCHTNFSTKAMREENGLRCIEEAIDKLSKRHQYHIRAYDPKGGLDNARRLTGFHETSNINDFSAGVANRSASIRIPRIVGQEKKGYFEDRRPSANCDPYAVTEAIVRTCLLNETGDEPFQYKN
T1 sequence (P15105 2-373 limits assumed): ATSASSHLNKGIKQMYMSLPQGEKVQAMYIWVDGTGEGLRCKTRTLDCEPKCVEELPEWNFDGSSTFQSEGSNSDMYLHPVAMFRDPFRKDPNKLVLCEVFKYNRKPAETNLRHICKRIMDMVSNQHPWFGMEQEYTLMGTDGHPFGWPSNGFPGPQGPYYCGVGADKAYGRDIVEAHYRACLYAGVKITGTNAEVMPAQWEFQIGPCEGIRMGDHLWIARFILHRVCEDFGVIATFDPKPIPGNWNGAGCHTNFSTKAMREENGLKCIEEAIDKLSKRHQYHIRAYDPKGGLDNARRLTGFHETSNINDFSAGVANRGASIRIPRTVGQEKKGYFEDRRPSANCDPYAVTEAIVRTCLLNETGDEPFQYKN
Chain of brain GS (P15105 2-373 limits assumed): as above

For `CP(=O)(O)CCC(N)C(=O)O` (racemic) [GF, ammonium 4-[hydroxy (methyl)phosphinoyl]-DL-homoalaninate], the “GS activity in the hippocampus” value (GS [1]) was “dose-dependently increased GS activity”, the “GS activity in the thalamus/hypothalamus” value (GS [1]) was “decreased GS activity” and the “GS activity in the cortex” value (GS [1]; GF 0.1, 3, 15 mg/kg, tianeptine 0.5, 15, 45 mg/kg) was “no significant effect”. For the same molecule, the “nature of the binding to GS” value (GS [2]) was “selective, irreversible GS ligand; also recorded: bind GS irreversibly”, the “effect on mycobacterium growth” value (pathogenic mycobacteria) was “only a very minor inhibitory effect” and the “dose levels with effects on kidney weight” value (rats [3]) was no less than 0.52 mg/kg bw/day. For the same molecule, the “resting time in the open field task” value (Wistar rats [4]) was “higher”, the adrenal weight [5] was “higher” and the “NOAEL for maternal and embryo/fetal toxicity” value (rats [6]) was 2.2 mg/kg bw/day. The teratogenicity (rats [6]) was “not teratogenic”, the “brain GR expression” value [7] was “higher” and the “NOAEL for maternal and embryo/fetal toxicity” value (rabbits) was 6.3 mg/kg bw/day. For the same molecule, the teratogenicity (rabbits) was “not teratogenic”, the NOAEL (mice [8]; based upon increased plasma potassium at next highest dose) was 80 ppm and the NOAEL (mice [8]; females) was 19 mg/kg bw/day. For the same molecule, the NOAEL (mice [8]; males) was 17 mg/kg bw/day, the NOAEL (dogs) was 4.5 mg/kg bw/day and the NOAEL (rats [9]; increased kidney weight at 140 ppm) was 40 ppm. The NOAEL (rats [9]; rat, in vivo) was 2.1 mg/kg bw/day, the carcinogenicity (rats [9]; rat, in vivo) was “not carcinogenic” and the “brain GS expression” value (GS [10]) was “higher”. For the same molecule, the NOAEL (mice [11]; increased mortality at higher dietary concentrations) was 80 ppm, the NOAEL (mice [11]; mouse, in vivo) was 11 mg/kg bw/day and the carcinogenicity (mice [11]; mouse, in vivo) was “not carcinogenic”. The methylprednisolone-induced adrenal atrophy ([12]; GF 0.001 mg/kg) was “fully prevented”, the adrenal weight ([12]; GF 0.001, 0.01, 0.1 mg/kg, NF 1 and 10 mg/kg, methyprednisolone 5 mg/kg i.p., 21 days, versus PCB) was “higher” and the “dose relation of the effect on adrenal weight” value ([12]; rat, in vivo) was “non dose-dependent effect”. For the same molecule, the “seizure occurrence after PTZ administration” value (Wistar rats [13]; GF 0.5, 5, 25 mg/kg, tianeptine 1, 10, 50 mg/kg i.p. 1 h before PTZ 50 mg/kg i.p.) was “decreased seizure occurrence”, the “dose relation of the effect on seizures” value (Wistar rats [13]; rat, in vivo) was “not dose-dependent” and the “lung GS activity” value (GS [14]; 21 days, most rats) was “decrease in lung GS activity”. The “brain GS activity” value (GS [14]; [20]) was “dose-dependent decrease”, the “liver GS activity” value (GS [14]; [20]) was “clear decrease” and the “lung GS activity” value (GS [14]; [21]) was “remained in the same range”. For the same molecule, the “GS activity in the cortex, hippocampus and thalamus/hypothalamus” value (GS [15]; one hour after PTZ administration) was “increased GS activity”, the “dose relation of the effects on GS activity” value (GS [15]; rat, in vivo) was “not proportional to the dose” and the “GS activity in the cortex” value (GS [16]) was “Trend to an Decrease”. The “GS activity in the hippocampus” value (GS [16]) was “Increase of GS Activity”, the “GS activity in the thalamus/hypothalamus” value (GS [16]; 1 h and 24 h after last administration) was “Decreased GS Activity” and the type of competition (purified sheep brain GS) was “competitive with L-glutamine”. The “effect on GS activity at “high” concentrations” value (purified sheep brain GS; in absence of 2βME) was “inhibit GS activity at “high” concentrations”, the ““low concentrations” that activate GS activity” value (purified sheep brain GS; in absence of 2βME) was 10^−4 to 10^−11 M and the “effect on GS subunit (monomer) activity” value (purified sheep brain GS; in presence of 2β-ME (DTT for tianeptine)) was “inhibit GS activity at “high” concentrations”. The “part of an oral dose eliminated in the urine” value ([17]; po) was 10-15%, the “main metabolite found in urine and in faeces” value [17] was 3-[hydroxy(methyl)phosphinoyl] propionic acid and the “GS activity in the thalamus/hypothalamus” value (GS [18]) was “decreased”. The “immobility in the forced swimming test” value (Wistar rats [19]; GF 0.1 mg/kg, tianeptine 0.5 mg/kg) was “clear decrease in immobility”, the “immobility in the forced swimming test” value (Wistar rats [19]; day 19, corticosterone 35 mg/kg s.c., versus PCB and Control) was “comparable or lower” and the “effects of corticosterone on CA3 pyramidal neurons” value (CA3 pyramidal neurons; GF 15 mg/kg) was “failed to blunt the effects of corticosterone”. The “effects of corticosterone on CA3 pyramidal neurons” value (CA3 pyramidal neurons; GF 0.1 and 3 mg/kg) was “prevent in part the deleterious effects of corticosterone”, the “brain GS expression” value (brain GS; [21]) was “increased also GS expression” and the “whole brain GS activity” value (brain GS; [21]) was “increase GS activity”. For the same molecule, the “dose relation of effects on GS activity and GS expression” value (brain GS) was “dose-dependent” and the “whole brain GS activity at higher doses” value (brain GS; doses above GF 3 mg/kg, tianeptine 15 mg/kg) was “decreased GS activity”.
